In US6692443B2, “Systems and methods for investigating blood flow” (New Health Sciences, Inc., priority 2000, dated 2004):

Test system: cerebral vessels
Protocol: A person with a history of hypertension experiences a first stroke in the left middle cerebral artery resulting in deficits in the right hand, leg, and some deficits in motor speech. These are the symptoms upon presentation in the neurological clinic. Transcranial Doppler analysis of all cerebral vessels is performed in addition to analyzing the common carotid artery and the internal carotid artery.
The physician considers prescription of Plavix together with a calcium channel blocker. Transcranial Doppler analysis was performed at monthly intervals. […] The physician subsequently administers a higher dose. Again, transcranial Doppler analysis is performed on all cerebral vessels.

`COC(=O)[C@H](c1ccccc1Cl)N1CCc2sccc2C1` [Plavix] was tested, and the “changes in the individual cerebral vessels (transcranial Doppler)” value (person after first stroke, Plavix +/− calcium channel blocker, initial dose, analysis at monthly intervals) was “no effect on the cerebral vessels”, the “auto-regulation curve (transcranial Doppler)” value (same patient, higher dose) was “left-shifts toward normal” and the “pulsatility index of the vessel studied (transcranial Doppler)” value (same patient, higher dose) was “decreases”.
